# Data taken from patent US20080206203A1, “Method for Inhibiting Tumor Metastasis” (Inflammation Research Center Company Ltd., priority 2004, published 2008).
# Like-named read-outs stand apart in the source and are kept apart here.
# Assays:
# [1] = system: permeability of blood brain barrier and infiltration of white blood cells to cerebrospinal fluid caused by arachidonic acid; assay: arachidonic acid-induced central nervous system inflammation (CSF volume and WBC counts via subarachnoid cannula); assay type: in vivo, rat
# From the text: To investigate the role of leukotriene antagonists in the treatment of inflammation, a sensitive and quantitative method to measure inflammation for the central nervous system was developed. Important changes in the inflammatory process can be monitored, as both the permeability of blood brain barrier (BBB) and the infiltration of white blood cells (WBC) to cerebrospinal fluid (CSF) caused by arachidonic acid can be measured over time from the same experimental animal. In particular, the effect of the leukotriene C4 and D4 antagonist, pranlukast, was studied using this method. Changes in the inflammatory process of both the permeability of BBB and the infiltration of white blood cells (WBC) caused by administering arachidonic acid as a nociceptive stimulus were observed.
# Male rats, approximately 350-400 g, were anesthetized with sodium pentobarbital at a dose of 50 mg/kg intraperitoneally (i.p.). Animals were then placed in a stereotaxic unit. Fur from the top of the head to neck was shaved. The study area was disinfected with 70% ethanol followed by a 10% providone-iodine solution. Skin and muscle over the cervical cord were dissected until cervical vertebrae were exposed. A hole was made using a 23 G3/4 needle passing through the dura via the cisterna magna. One end of a 2-3 mm PE10 cannula (0.011 “I.D., 0.007” thick, 0.024″ O.D., 6.5 cm long) was inserted into the subarachnoid space at the cervical cord so as to avoid damage to neuronal tissue (FIG. 3). The cannula was fixed with cyanoacrylic glue to the peripheral tissue. The other end of PE10 was used for administration of a nociceptive stimulus, such as arachidonic acid (AA; 3.25 μg/2 μl) and subsequently for collecting cerebrospinal fluid (CSF) every thirty minutes thereafter during the 11-hour experimental period. The cannula filled with CSF immediately after the cannulation.
# Air was infused to inject AA to the subarachnoid space. The muscles and skin were closed with surgical staples. The rat was then removed from the stereotaxic unit and placed on a heat pad and continuously monitored.
# In the interaction study, the leukotriene C4 and D4 antagonist, pranlukast, was administered (490 mg/kg, i.p.) thirty minutes before administration of arachidonic acid (AA). If the effects of the anesthesia appeared to be wearing off, an additional 0.05-0.1 ml pentobarbital (50 mg/ml, i.p.) dose was administered. If at any time during the experiment, the animal appeared to be in pain or distress, the study was immediately stopped and the animal was euthanized.
# In the present study, the volume (μl) of cerebrospinal fluid (CSF) and white blood cell (WBC) counts in CSF was measured every thirty minutes for 11 hours from the same rat. One side of the cannula (PE10) was inserted into the subarachnoid space under pentobarbital anesthesia, avoiding neuronal damage (FIG. 3). If the brain tissue is damaged, the volume of CSF and WBC increases immediately without the administration of arachidonic acid. Since there are no WBC in the CSF in the normal rat, only rats that had no WBC in the CSF immediately after the cannulation were used. Another side of the cannula remained open and was used for the administration of nociceptive stimuli (arachidonic acid, LPS, dextran, etc.) and subsequently for collecting the CSF every thirty minutes during the experiment. The CSF volume was measured using a micropipette and WBC in the CSF were counted by means of a hemacytometer.
# [2] = in vivo; cited from earlier work
# [3] = system: dextran-induced rat paw edema; assay: dextran-induced rat paw edema; assay type: in vivo
# [4] = system: rat ischemia model; assay: rat ischemia model, reversible 30 minute occlusion of both carotid arteries followed by reperfusion; assay type: in vivo; settings: pre-treatment
# Description: One of 4-5 rats survived for one week when pranlukast (450 mg/kg i.p.) was administered 30 minutes before the occlusion.
# [5] = system: infiltration of WBC into the CSF caused by interleukin-6; assay: interleukin-6-induced infiltration of WBC into the CSF in the intact dog; assay type: in vivo; settings: pretreatment, three different doses
# From the text: Additionally, increased infiltration of WBC into the CSF caused by interleukin-6 were inhibited by pretreatment of pranlukast (administered at three different doses) in the intact dog.
# [6] = system: capillary permeability and extravasation of white blood cells and tumor cells from the capillary; assay: interaction study: arachidonic acid-induced capillary permeability and extravasation into CSF (model of metastasis); assay type: in vivo, rat
# Description: (§1) To test for inhibition of metastasis, pranlukast is administered orally (instead of intraperitoneally as was done in Example 2) before intravenous injection of the cancer cells. Arachidonic acid (AA) is then administered to the subarachnoid space two hours after pranlukast administration. The volume of CSF, white blood cell counts and cancer cell counts in the CSF are measured every 30 minutes.
# (§2) Rats were anesthetized by sodium pentobarbital (50 mg/kg i.p.).
# (§3) A femoral vein was exposed and a polyethylene tube filled with 0.002% heparin in saline was inserted. The other end of the polyethylene tube was connected to a three way cock valve for the intravenous injection of cancer cells. The animal was then placed in a stereotaxic unit (Type SRS-6 produced by Narishige Scientific Instrument Lab). Fur from the top of the head to the neck was shaved. The study area was disinfected with 70% ethanol. Skin and muscle over the cervical vertebrae were exposed. A hole was made using an 18 G×1 ½ needle passing through the dura via the cisterna magna. One end (2-3 mm) of an SP10 tube (5-6 cm long) was inserted into the subarachnoid space. The cannula was fixed with cyanoacrylic glue to the peripheral tissue. The other end of the SP10 tube was used for administration of arachidonic acid (8.16 ng/2 μl of saline) and subsequently for collecting cerebrospinal fluid (CSF) every thirty minutes thereafter for 1-2 hours in the in vivo morphological study and for 8 hours in the interaction studies.
# As a capsule of Onon contains 112.5 mg of pranlukast, the powder from two capsules was stirred in 2.295 ml of deionized water with the electric mixer immediately before oral administration. The volume of administration of pranlukast was 5 ml/kg (dose=490 mg/kg).
# The number of cancer cells were prepared to 1/100 of the number of neutrophils in each rat using PBS. Because of body weight (400±50 g), the number of cancer cells were between 1.88×10^4 and 2.43×10^4 and the volume of administration of cancer cell was adjusted to 1 ml for each rat.
# Arachidonic acid was dissolved in saline and 816.25 ng/2 μl was administered for each rat.
# Three different treatments were administered as follows;
# 1st treatment was pranlukast (490 mg/kg p.o.) or deionized water (p.o.).
# 2nd treatment was with cancer cells or PBS
# 3rd treatment was with arachidonic acid or saline.
# The first treatment was administered 2 hours before arachidonic acid. The second treatment (cancer cells i.v.) was administered 2-3 minutes before arachidonic acid. Two canula in each animal to the femoral vein and to the subarachnoid space were inserted between the 1st treatment and 2nd treatment.
# The number on the right side of table corresponds to that of the figures for the results. Four rats were used for each group.
# (§4) The volume (μl) of CSF, WBC counts, and cancer cells counts was measured after the 3rd treatment for 8 hours.
# To analyze whether or not human cancer cells, as foreign substances, affect the immune system in rats, each parameter, i.e., white blood cells counts, tumor cells counts and CSF volume with rat cancer cells (RCN9) was compared with the corresponding parameters of COLO201, MKN 74, and QG56, respectively, using area under time action curves and analysis of variance (Dunnet). Probability value was p<0.05 to be significant.
# [7] = system: Colo 201 (colon cancer) cells; assay: interaction study with Colo201 cancer cells i.v.; assay type: in vivo, human
# Description: as §1
# (§5) Cultured human cancer cell lines, Colo 201 (colon cancer) and MKN 74 ([…]), and a cultured rat cancer cell line RCN9 were purchased from Health Science Research Resources Bank (Rinku-minamihama 2-11, Sennan-shi, Osaka, 590-0535, Japan). Human lung cancer cell line QG56 was a gift from Dr. Yukito Ichinose, Department of Laboratory Medicine, Kyusyu Cancer Center, Hukuoka, Japan. Cells were cultured at 37° C. and 5% CO2, in RPMI-1640 (SIGMA, MO, USA) supplemented with 5% fetal bovine serum, 2 mM L-glutamine (Gibco), 100 units penicillin, 100 μg/ml streptomycin (Gibco Invitrogen Corp., Grand Island, N.Y., USA).
# as §2
# as §3, with “The other end of the SP10 tube was used for administration of arachidonic acid (8.16 ng/2 μl of saline) and subsequently for collecting cerebrospinal fluid (CSF) every thirty minutes thereafter for 1-2 hours in the in vivo morphological study and for 8 hours in the interaction studies.” left out
# as §4
# [8] = system: MKN 74 (lung cancer) cells; assay: interaction study with MKN74 cancer cells i.v.; assay type: in vivo, human; settings: pranlukast-MKN74-arachidonic acid, 490 mg/kg p.o., rat
# Description: as §1, §5, §2
# as §3, with “The other end of the SP10 tube was used for administration of arachidonic acid (8.16 ng/2 μl of saline) and subsequently for collecting cerebrospinal fluid (CSF) every thirty minutes thereafter for 1-2 hours in the in vivo morphological study and for 8 hours in the interaction studies.” left out
# as §4
# [9] = system: MKN 74 cells; assay: interaction study with MKN74 cancer cells i.v.; assay type: in vivo, human; settings: pranlukast-MKN 74-saline
# Description: as §1, §5, §2
# as §3, with “The other end of the SP10 tube was used for administration of arachidonic acid (8.16 ng/2 μl of saline) and subsequently for collecting cerebrospinal fluid (CSF) every thirty minutes thereafter for 1-2 hours in the in vivo morphological study and for 8 hours in the interaction studies.” left out
# as §4
# [10] = system: lung cancer cell line QG56; assay: interaction study with QG56 cancer cells i.v.; assay type: in vivo, human
# Description: as §1, §5, §2
# as §3, with “The other end of the SP10 tube was used for administration of arachidonic acid (8.16 ng/2 μl of saline) and subsequently for collecting cerebrospinal fluid (CSF) every thirty minutes thereafter for 1-2 hours in the in vivo morphological study and for 8 hours in the interaction studies.” left out
# as §4
# [11] = system: RCN-9, a colon cancer cell line; assay: interaction study with RCN9 cancer cells i.v.; assay type: in vivo, rat
# Description: as §1, §5, §2
# as §3, with “The other end of the SP10 tube was used for administration of arachidonic acid (8.16 ng/2 μl of saline) and subsequently for collecting cerebrospinal fluid (CSF) every thirty minutes thereafter for 1-2 hours in the in vivo morphological study and for 8 hours in the interaction studies.” left out
# as §4
# [12] = system: rats; settings: cited from earlier work
# [13] = system: mice; settings: cited from earlier work
# [14] = system: rats; settings: cited from earlier work; remark: listed apart in the source
# [15] = 20 mg/kg p.o., cited from earlier work
# [16] = 490 mg/kg p.o., eight hours after arachidonic acid
# [17] = pranlukast (490 mg/kg p.o.)-PBS-arachidonic acid (816 ng/2 μl), FIG. 11
# [18] = pranlukast-Colo201-arachidonic acid, 490 mg/kg p.o., rat
# [19] = pranlukast-QG56-arachidonic acid, 490 mg/kg p.o., rat
# [20] = pranlukast-RCN9-arachidonic acid, 490 mg/kg p.o., rat
smiles,measurement,setting,value
"CCCCC/C=C\C/C=C\C/C=C\C/C=C\CCCC(=O)O [arachidonic acid, Arachidonic acid]",maximum CSF volume after administration,"[1]; arachidonic acid 3.2 μg/2 μl into subarachnoid space, collected every thirty minutes, rat",100 to 120 µL
same,CSF volume maintained for every thirty minutes,"[1]; arachidonic acid 3.2 μg/2 μl, during 4.0-5.0 hours post-administration",60 to 80 µL
same,time to peak / maximum CSF volume,"[1]; arachidonic acid into subarachnoid space, rat",≤ 3.5 h
CC(C)(O)c1ccccc1CC[C@@H](SCC1(CC(=O)O)CC1)c1cccc(/C=C/c2ccc3ccc(Cl)cc3n2)c1 [montelukast],passage of the blood-brain barrier,[2],"does not pass, or passes the blood-brain barrier at most at a very minimal level"
O=C(Nc1cccc2c(=O)cc(-c3nnn[nH]3)oc12)c1ccc(OCCCCc2ccccc2)cc1 [pranlukast],inhibition of dextran-induced paw edema,"[3]; about 490 mg/kg, administered intraperitoneally",completely inhibited
same,inhibition of dextran-caused paw edema,"[3]; about 490 mg/kg, administered orally (FIG. 2)",completely inhibited
same,inhibition of dextran-induced rat paw edema,[3]; dose dependence,inhibited by pranlukast in a dose-dependent fashion
same,inhibition of inflammation caused by arachidonic acid,"[1]; 450 mg/kg i.p., arachidonic acid 3.25 μg/2 μl",completely inhibits
same,inhibition of the increase of CSF volume,"[1]; 490 mg/kg i.p. thirty minutes before arachidonic acid (3.25 μg/2 μl) into the subarachnoid space, rat",completely inhibited
same,inhibition of the permeability of the brain capillary marked by WBC infiltration,"[1]; 490 mg/kg i.p. thirty minutes before arachidonic acid, rat",completely inhibited
same,survival,[4],longer survival
same,increased infiltration of WBC into the CSF caused by interleukin-6,[5],inhibited
same,"area under the time action curve, CSF",[6]; [16],zero
same,"area under the time action curve, white blood cell counts",[6]; [16],zero
same,"area under the time action curve, tumor cell counts","[6]; 490 mg/kg p.o., eight hours after arachidonic acid, tumor cells i.v.",zero
same,extravasation of white blood cells caused by arachidonic acid,[6]; [17],inhibited
same,increased capillary permeability caused by arachidonic acid,[6]; [17],inhibited
same,effect of pranlukast by itself on tumor/WBC counts and CSF volume,"[6]; pranlukast-PBS-saline, 490 mg/kg p.o., no arachidonic acid",no effect
same,extravasation of tumor cells,[7]; [18],significantly inhibited
same,increasing capillary permeability,[7]; [18],significantly inhibited
same,effect when cancer cells present without arachidonic acid,[7]; pranlukast-Colo201-saline,did not have any effect
same,extravasation of tumor cells,[8],significantly inhibited
same,increasing capillary permeability,[8],significantly inhibited
same,effect when cancer cells present without arachidonic acid,[9],did not have any effect
same,extravasation of tumor cells,[10]; [19],significantly inhibited
same,increasing capillary permeability,[10]; [19],significantly inhibited
same,effect when cancer cells present without arachidonic acid,[10]; pranlukast-QG56-saline,did not have any effect
same,extravasation of tumor cells,[11]; [20],significantly inhibited
same,increasing capillary permeability,[11]; [20],significantly inhibited
same,effect when cancer cells present without arachidonic acid,[11]; pranlukast-RCN9-saline,did not have any effect
same,LD50,[12]; p.o.,> 2000 mg/kg
same,LD50,[12]; s.c.,> 2000 mg/kg
same,LD50,[13]; p.o.,> 2000 mg/kg
same,LD50,[13]; s.c.,> 2000 mg/kg
same,"behavior, changes in body weight, and food intake compared with control group","[14]; repeated administration 30, 100, 300, 1000 mg/kg/day p.o. for three months and six months",normal
same,urine examination and histopathological examinations,[14]; repeated administration,normal
same,"behavior, changes in body weight, and food intake compared with control group","[14]; single administration 30, 100, 300, 1000 mg/kg p.o.",normal
same,urine examination and histopathological examinations,[14]; single administration,normal
same,pranlukast in blood 24 hours after administration,[15]; 24 hours,no pranlukast was observed
same,time at which maximum blood concentration was attained,[15],within one hour
same,time the maximum blood concentration was maintained,[15],at least 5 hours
same,passage of the blood-brain barrier,[2],"does not pass, or passes the blood-brain barrier at most at a very minimal level"
COc1cc(C(=O)NS(=O)(=O)c2ccccc2C)ccc1Cc1cn(C)c2ccc(NC(=O)OC3CCCC3)cc12 [zafirlukast],passage of the blood-brain barrier,[2],"does not pass, or passes the blood-brain barrier at most at a very minimal level"
